Experimental data from BindingDB's records for doi:10.1016/s0960-894x(98)00240-6 (Boehringer Ingelheim (Canada), 1999).

Assay: Inhibitory activity against porcine pancreatic elastase(PPE)

Row | Structure (SMILES) | IC50 [µM]
1 | O=C1CC(SCc2ccccn2)N1C(=O)N[C@H](CO)c1ccccc1 (stereo partly drawn) [2-Oxo-4-(pyridin-2-ylmethylsulfanyl)-azetidine-1-carboxylic acid ((S)-2-hydroxy-1-phenyl-ethyl)-amide] | > 75
2 | CC[C@@H](NC(=O)N1C(=O)[C@@H](C)[C@@H]1SCc1ccccn1)c1ccccc1 [(3R,4S)-3-Methyl-2-oxo-4-(pyridin-2-ylmethylsulfanyl)-azetidine-1-carboxylic acid ((R)-1-phenyl-propyl)-amide] | 0.73

Other lines, results leading:

Row | IC50 [µM] | Structure (SMILES)
3 | 65 | C[C@@H](NC(=O)N1C(=O)CC1SCc1cccnc1)c1ccccc1 (stereo partly drawn) [2-Oxo-4-(pyridin-3-ylmethylsulfanyl)-azetidine-1-carboxylic acid ((R)-1-phenyl-ethyl)-amide]
4 | 21 | C[C@@H](NC(=O)N1C(=O)CC1SCc1ccncc1)c1ccccc1 (stereo partly drawn) [2-Oxo-4-(pyridin-4-ylmethylsulfanyl)-azetidine-1-carboxylic acid ((R)-1-phenyl-ethyl)-amide]
5 | > 75 | CC(C)C[C@@H](COC1CC(=O)N1C(=O)NCc1ccccc1)NC(=O)[C@@H](NC(=O)OC(C)(C)C)C(C)(C)C (stereo partly drawn) [{(S)-1-[(S)-1-(1-Benzylcarbamoyl-4-oxo-azetidin-2-yloxymethyl)-3-methyl-butylcarbamoyl]-2,2-dimethyl-propyl}-carbamic acid tert-butyl ester]
